Tests used:
[1] = molecular target: T1, Acetylcholinesterase (Bos taurus, UniProt P23795)
T1 sequence (P23795 whole entry): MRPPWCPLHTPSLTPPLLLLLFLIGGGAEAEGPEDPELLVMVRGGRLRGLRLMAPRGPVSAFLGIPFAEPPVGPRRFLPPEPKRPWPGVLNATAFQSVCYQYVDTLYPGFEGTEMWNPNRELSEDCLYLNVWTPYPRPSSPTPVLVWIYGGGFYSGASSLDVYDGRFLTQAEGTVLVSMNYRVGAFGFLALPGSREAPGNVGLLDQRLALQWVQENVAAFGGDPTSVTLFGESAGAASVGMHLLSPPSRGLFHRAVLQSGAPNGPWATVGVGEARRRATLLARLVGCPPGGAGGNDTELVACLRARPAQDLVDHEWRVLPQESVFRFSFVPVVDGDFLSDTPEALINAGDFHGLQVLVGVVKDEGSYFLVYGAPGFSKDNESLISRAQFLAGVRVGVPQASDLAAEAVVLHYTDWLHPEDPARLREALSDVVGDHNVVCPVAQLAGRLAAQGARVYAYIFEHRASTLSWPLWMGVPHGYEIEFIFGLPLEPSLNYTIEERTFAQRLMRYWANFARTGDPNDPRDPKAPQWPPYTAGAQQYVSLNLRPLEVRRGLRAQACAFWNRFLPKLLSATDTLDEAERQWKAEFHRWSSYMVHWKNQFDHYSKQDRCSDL
Description: Inhibition of acetylcholinesterase (AChE) of fetal bovine serum (FBS)

[2] = molecular target: Butyrylcholinesterase (Equus caballus, UniProt Q9N1N9)
Chain of Butyrylcholinesterase (Q9N1N9 whole entry): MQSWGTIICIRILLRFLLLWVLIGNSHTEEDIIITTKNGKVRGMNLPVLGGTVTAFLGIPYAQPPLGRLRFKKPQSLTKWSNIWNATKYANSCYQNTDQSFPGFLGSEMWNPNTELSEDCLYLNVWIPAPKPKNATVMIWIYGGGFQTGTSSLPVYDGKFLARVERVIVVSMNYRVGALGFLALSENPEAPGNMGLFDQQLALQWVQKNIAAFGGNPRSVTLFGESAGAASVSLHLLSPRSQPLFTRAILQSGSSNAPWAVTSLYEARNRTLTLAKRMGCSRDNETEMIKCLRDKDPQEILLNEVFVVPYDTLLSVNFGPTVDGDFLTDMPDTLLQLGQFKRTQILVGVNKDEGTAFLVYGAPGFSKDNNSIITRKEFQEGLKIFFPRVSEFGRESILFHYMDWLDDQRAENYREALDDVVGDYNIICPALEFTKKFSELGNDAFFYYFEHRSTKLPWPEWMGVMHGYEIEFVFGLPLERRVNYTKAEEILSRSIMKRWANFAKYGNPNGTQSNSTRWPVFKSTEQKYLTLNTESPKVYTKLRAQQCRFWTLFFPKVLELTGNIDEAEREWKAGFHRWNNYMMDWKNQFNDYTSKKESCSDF
Description: Inhibition of equine (Eq) Butyrylcholinesterase

Row | Compound | Ki [1] [nM] | Ki [2] [nM]
1 | c1ccc2c(SCCCCCCCSc3c4c(nc5ccccc35)CCCC4)c3c(nc2c1)CCCC3 | > 10000 | 380
2 | c1ccc2c(NCCCCCCCSc3c4c(nc5ccccc35)CCCC4)c3c(nc2c1)CCCC3 | 340 | 35
3 | c1ccc2c(NCCCCSc3c4c(nc5ccccc35)CCCC4)c3c(nc2c1)CCCC3 | 650 | 40
4 | Clc1cc(Cl)c2nc3c(c(SCCCCCCCNc4c5c(nc6ccccc46)CCCC5)c2c1)CCCC3 | 290 | 80
5 | c1ccc2c(NCCCCCCCNc3c4c(nc5ccccc35)CCCC4)c3c(nc2c1)CCCC3 | – | 2
6 | Nc1c2c(nc3cc(Cl)cc(Cl)c13)CCCC2 | 1 | 50
7 | Clc1cc(Cl)c2c(SCCCCCCNc3c4c(nc5ccccc35)CCCC4)c3c(nc2c1)CCCC3 | 120 | 45
8 | Clc1cc(Cl)c2c(NCCCCCCCSc3c4c(nc5ccccc35)CCCC4)c3c(nc2c1)CCCC3 | – | 250

Source: ChEMBL document CHEMBL1134129, “Novel and potent tacrine-related hetero- and homobivalent ligands for acetylcholinesterase and butyrylcholinesterase” (Bioorg Med Chem Lett, 2001)
